Drawing on US10026660B2, “Method of etching the back of a wafer to expose TSVs” (priority 2014, dated 2018), this text covers LD50 for one compound.

The subject of this series is rat. The experiment in a line: Rat dermal exposure toxicity (LD50). Particulars: rat dermal exposure (skin contact). An excerpt: LD50 is the dosage for 50% or more of test rats to […] after skin contact with the test chemicals in a given time. Generally, the higher the LD50, the less toxic the chemical.

Regarding `C[N+](C)(C)C.[OH-]` [TMAH, Tetramethylammonium hydroxide], the LD50 was 157 mg/kg.

Usually LD50 stands for the dose expected to kill half of the subjects tested. A high value points to a less toxic substance.
